Assay results as given in PubChem BioAssay AID1259407 (Chemical Carcinogenesis Research Information System (CCRIS), 2018).
Activity calls are given as the source filed them. The rule behind the calls is not given here.

System: CCRIS mutagenicity, Ames/micronucleus/aberration tests
Experiment: CCRIS mutagenicity studies
[1] = Test System: AMES SALMONELLA TYPHIMURIUM, Strain/Indicator: TA100, Metabolic Activation: NONE, Method: STANDARD PLATE
[2] = Test System: AMES SALMONELLA TYPHIMURIUM, Strain/Indicator: TA98, Metabolic Activation: NONE, Method: PREINCUBATION
[3] = Test System: AMES SALMONELLA TYPHIMURIUM, Strain/Indicator: TA98, Metabolic Activation: HAMSTER, LIVER, S-9, AROCLOR 1254 (30%), Method: PREINCUBATION
[4] = Test System: AMES SALMONELLA TYPHIMURIUM, Strain/Indicator: TA98, Metabolic Activation: NONE, Method: STANDARD PLATE
[5] = Test System: AMES SALMONELLA TYPHIMURIUM, Strain/Indicator: TA98, Metabolic Activation: RAT, LIVER, S-9, AROCLOR 1254 (30%), Method: PREINCUBATION
[6] = Test System: AMES SALMONELLA TYPHIMURIUM, Strain/Indicator: TA100, Metabolic Activation: HAMSTER, LIVER, S-9, AROCLOR 1254 (30%), Method: PREINCUBATION
[7] = Test System: AMES SALMONELLA TYPHIMURIUM, Strain/Indicator: TA100, Metabolic Activation: NONE, Method: PREINCUBATION
[8] = Test System: AMES SALMONELLA TYPHIMURIUM, Strain/Indicator: TA100, Metabolic Activation: RAT, LIVER, S-9, AROCLOR 1254 (30%), Method: PREINCUBATION

CC(C)(C)C1CCC2(CC1)CO2 (configuration not stated)
mutagenic call [1]: inactive; negative

NC(=O)/C=C/c1ccc([N+](=O)[O-])o1
mutagenic call [2]: active; positive
mutagenic call (Test System: UDS HUMAN FIBROBLASTS, Strain/Indicator: THY INCORP (NON-S-PHASE), Metabolic Activation: NONE, Method: AUTORADIOGRAPHY): active; positive

COc1ccc(N)c(OC)c1
mutagenic call [3]: active; positive
mutagenic call (Test System: AMES SALMONELLA TYPHIMURIUM, Strain/Indicator: TA98, Metabolic Activation: HAMSTER, LIVER, S-9, Method: STANDARD PLATE): inactive; negative
mutagenic call (Test System: AMES SALMONELLA TYPHIMURIUM, Strain/Indicator: TA98, Metabolic Activation: MOUSE, LIVER, S-9, AROCLOR 1254, Method: STANDARD PLATE): inactive; negative
mutagenic call (Test System: AMES SALMONELLA TYPHIMURIUM, Strain/Indicator: TA98, Metabolic Activation: MOUSE, LIVER, S-9, Method: STANDARD PLATE): inactive; negative
mutagenic call [2]: inactive; negative
mutagenic call [4]: inactive; negative
mutagenic call [5]: active; positive
mutagenic call (Test System: AMES SALMONELLA TYPHIMURIUM, Strain/Indicator: TA98, Metabolic Activation: RAT, LIVER, S-9, Method: STANDARD PLATE): inactive; negative
mutagenic call [6]: active; positive
mutagenic call (Test System: AMES SALMONELLA TYPHIMURIUM, Strain/Indicator: TA100, Metabolic Activation: HAMSTER, LIVER, S-9, AROCLOR 1254, Method: STANDARD PLATE): inactive; negative
mutagenic call (Test System: AMES SALMONELLA TYPHIMURIUM, Strain/Indicator: TA100, Metabolic Activation: HAMSTER, LIVER, S-9, Method: STANDARD PLATE): inactive; negative
mutagenic call (Test System: AMES SALMONELLA TYPHIMURIUM, Strain/Indicator: TA100, Metabolic Activation: MOUSE, LIVER, S-9, AROCLOR 1254, Method: STANDARD PLATE): inactive; negative
mutagenic call (Test System: AMES SALMONELLA TYPHIMURIUM, Strain/Indicator: TA100, Metabolic Activation: MOUSE, LIVER, S-9, Method: STANDARD PLATE): inactive; negative
mutagenic call [7]: inactive; negative
mutagenic call [1]: inactive; negative
mutagenic call [8]: inactive; negative
mutagenic call (Test System: AMES SALMONELLA TYPHIMURIUM, Strain/Indicator: TA100, Metabolic Activation: RAT, LIVER, S-9, AROCLOR 1254, Method: STANDARD PLATE): inactive; negative
mutagenic call (Test System: AMES SALMONELLA TYPHIMURIUM, Strain/Indicator: TA100, Metabolic Activation: RAT, LIVER, S-9, Method: STANDARD PLATE): inactive; negative
mutagenic call (Test System: AMES SALMONELLA TYPHIMURIUM, Strain/Indicator: TA1535, Metabolic Activation: HAMSTER, LIVER, S-9, AROCLOR 1254, Method: STANDARD PLATE): inactive; negative
mutagenic call (Test System: AMES SALMONELLA TYPHIMURIUM, Strain/Indicator: TA1535, Metabolic Activation: HAMSTER, LIVER, S-9, Method: STANDARD PLATE): inactive; negative
mutagenic call (Test System: AMES SALMONELLA TYPHIMURIUM, Strain/Indicator: TA1535, Metabolic Activation: MOUSE, LIVER, S-9, AROCLOR 1254, Method: STANDARD PLATE): inactive; negative
mutagenic call (Test System: AMES SALMONELLA TYPHIMURIUM, Strain/Indicator: TA1535, Metabolic Activation: MOUSE, LIVER, S-9, Method: STANDARD PLATE): inactive; negative
mutagenic call (Test System: AMES SALMONELLA TYPHIMURIUM, Strain/Indicator: TA1535, Metabolic Activation: NONE, Method: STANDARD PLATE): inactive; negative
mutagenic call (Test System: AMES SALMONELLA TYPHIMURIUM, Strain/Indicator: TA1535, Metabolic Activation: RAT, LIVER, S-9, AROCLOR 1254, Method: STANDARD PLATE): inactive; negative
mutagenic call (Test System: AMES SALMONELLA TYPHIMURIUM, Strain/Indicator: TA1535, Metabolic Activation: RAT, LIVER, S-9, Method: STANDARD PLATE): inactive; negative
mutagenic call (Test System: AMES SALMONELLA TYPHIMURIUM, Strain/Indicator: TA1537, Metabolic Activation: HAMSTER, LIVER, S-9, Method: STANDARD PLATE): inactive; negative
mutagenic call (Test System: AMES SALMONELLA TYPHIMURIUM, Strain/Indicator: TA1537, Metabolic Activation: MOUSE, LIVER, S-9, AROCLOR 1254, Method: STANDARD PLATE): inactive; negative
mutagenic call (Test System: AMES SALMONELLA TYPHIMURIUM, Strain/Indicator: TA1537, Metabolic Activation: MOUSE, LIVER, S-9, Method: STANDARD PLATE): inactive; negative
mutagenic call (Test System: AMES SALMONELLA TYPHIMURIUM, Strain/Indicator: TA1537, Metabolic Activation: NONE, Method: STANDARD PLATE): inactive; negative
mutagenic call (Test System: AMES SALMONELLA TYPHIMURIUM, Strain/Indicator: TA1537, Metabolic Activation: RAT, LIVER, S-9, AROCLOR 1254, Method: STANDARD PLATE): inactive; negative
mutagenic call (Test System: AMES SALMONELLA TYPHIMURIUM, Strain/Indicator: TA1537, Metabolic Activation: RAT, LIVER, S-9, Method: STANDARD PLATE): inactive; negative
mutagenic call (Test System: AMES SALMONELLA TYPHIMURIUM, Strain/Indicator: TA1538, Metabolic Activation: MOUSE, LIVER, S-9, Method: STANDARD PLATE): inactive; negative
mutagenic call (Test System: AMES SALMONELLA TYPHIMURIUM, Strain/Indicator: TA1538, Metabolic Activation: NONE, Method: STANDARD PLATE): inactive; negative
mutagenic call (Test System: AMES SALMONELLA TYPHIMURIUM, Strain/Indicator: TA1538, Metabolic Activation: RAT, LIVER, S-9, Method: STANDARD PLATE): inactive; negative
mutagenic call (Test System: E. COLI, Strain/Indicator: WP2 UVRA, Metabolic Activation: HAMSTER, LIVER, S-9, AROCLOR 1254, Method: STANDARD PLATE): inactive; negative
mutagenic call (Test System: E. COLI, Strain/Indicator: WP2 UVRA, Metabolic Activation: HAMSTER, LIVER, S-9, Method: STANDARD PLATE): inactive; negative
mutagenic call (Test System: E. COLI, Strain/Indicator: WP2 UVRA, Metabolic Activation: MOUSE, LIVER, S-9, AROCLOR 1254, Method: STANDARD PLATE): inactive; negative
mutagenic call (Test System: E. COLI, Strain/Indicator: WP2 UVRA, Metabolic Activation: MOUSE, LIVER, S-9, Method: STANDARD PLATE): inactive; negative
mutagenic call (Test System: E. COLI, Strain/Indicator: WP2 UVRA, Metabolic Activation: NONE, Method: STANDARD PLATE): inactive; negative
mutagenic call (Test System: E. COLI, Strain/Indicator: WP2 UVRA, Metabolic Activation: RAT, LIVER, S-9, AROCLOR 1254, Method: STANDARD PLATE): inactive; negative
mutagenic call (Test System: E. COLI, Strain/Indicator: WP2 UVRA, Metabolic Activation: RAT, LIVER, S-9, Method: STANDARD PLATE): inactive; negative

Nc1ccc2ccc3c4ccccc4cc4ccc1c2c43
mutagenic call (Test System: AMES SALMONELLA TYPHIMURIUM, Strain/Indicator: TA98, Metabolic Activation: NONE): active; positive
mutagenic call (Test System: AMES SALMONELLA TYPHIMURIUM, Strain/Indicator: TA98, Metabolic Activation: RAT, LIVER, S-9, AROCLOR 1254): active; positive

CCCCCCCCCCCCCCCC(=O)OCC1(O)CC23CC[C@@H]4c5ccoc5C=CC4(C)C2CCC1C3 (some centres not stated)
mutagenic call (Test System: AMES SALMONELLA TYPHIMURIUM, Strain/Indicator: TM677, Metabolic Activation: NONE, Method: PREINCUBATION): inactive; negative
mutagenic call (Test System: AMES SALMONELLA TYPHIMURIUM, Strain/Indicator: TM677, Metabolic Activation: RAT, LIVER, S-9, AROCLOR 1254, Method: PREINCUBATION): inactive; negative

Nc1ccc(Sc2ccccc2)cc1
mutagenic call [4]: inactive; negative
mutagenic call (Test System: AMES SALMONELLA TYPHIMURIUM, Strain/Indicator: TA98, Metabolic Activation: RAT, LIVER, S-9, AROCLOR 1254, Method: STANDARD PLATE): active; positive

CCC(O)CN(CC(O)CC)N=O (configuration not stated)
mutagenic call (Test System: CHINESE HAMSTER V-79, Strain/Indicator: V-79/OUABAIN, Metabolic Activation: HAMSTER, HEPATOCYTES, Method: CELL-MEDIATED): inactive; negative

Clc1cc2c3nc4[n-]c(nc5nc(nc6nc(nc([n-]3)c2c(Cl)c1Cl)-c1c(Cl)c(Cl)c(Cl)c(Cl)c1-6)-c1c(Cl)c(Cl)c(Cl)c(Cl)c1-5)c1c(Cl)c(Cl)c(Cl)c(Cl)c41.[Cu+2]
mutagenic call [3]: active; positive
mutagenic call [2]: inactive; negative
mutagenic call [5]: active; positive
mutagenic call [6]: inactive; negative
mutagenic call [7]: inactive; negative
mutagenic call [8]: inactive; negative
